This note sets out measurements from patent US12091425B2 (AMGEN INC., priority 2016, dated 2024).

T1 sequence (Q07820 171-327): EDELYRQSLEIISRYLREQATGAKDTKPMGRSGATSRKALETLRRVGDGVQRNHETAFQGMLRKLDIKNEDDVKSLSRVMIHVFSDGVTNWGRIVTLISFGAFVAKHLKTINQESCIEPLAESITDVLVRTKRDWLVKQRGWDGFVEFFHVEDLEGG

One test has as its target T1, Mcl-1/Bim interaction, recombinant human Mcl-1 (171-327) (Homo sapiens, UniProt Q07820).
T1 construct: made in house
The test can be described thus: Cell free Mcl-1: Bim Affinity Assay (Mcl-1 HTRF). Format: binding. The conditions noted are these: TR-FRET, 0.1 nM Mcl-1 (171-327), 0.05 nM biotin-Bim (51-76). The method in brief:
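Biotin-Bim(51-76) peptide, TR-FRET readout, overnight incubation; IC50 from duplicate competition curves, 4-parameter fit.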
In general terms: TR-FRET usually uses a lanthanide donor and a delayed reading to cut background.
Usually IC50 stands for the concentration that gives 50% inhibition. On to `CC[C@@H]1CC/C=C/C(NC(C)=O)[C@@H]2CC[C@H]2CN2C[C@@]3(CCCc4cc(Cl)ccc43)COc3ccc(cc32)C(=O)NS1(=O)=O` (stereo in doubt) [Example 1076, N-((1S,3′R,6′R,7′R,8′E,12′R)-6-chloro-12′-ethyl-13′,13′-dioxido-15′-oxo-3,4-dihydro-2H-spiro[naphthalene-1,22′-[20]oxa[13]thia[1,14]diazatetracyclo[14.7.2.0^3,6.0^19,24]pentacosa[8,16,18,24]tetraen]-7′-yl)acetamide], for which the IC50 was 1.82 nM.

In the case of `CC[C@@H]1CC/C=C/[C@H](OCCOC)[C@@H]2CC[C@H]2CN2C[C@@]3(CCCc4cc(Cl)ccc43)COc3ccc(cc32)C(=O)NS1(=O)=O` [Example 980, (1S,3′R,6′R,7′S,8′E,12′R)-6-chloro-12′-ethyl-7′-(2-methoxyethoxy)-3,4-dihydro-2H,15′H-spiro[naphthalene-1,22′-[20]oxa[13]thia[1,14]diazatetracyclo[14.7.2.0^3,6.0^19,24]pentacosa [8,16,18,24]tetraen]-15′-one 13′,13′-dioxide], the IC50 was found to be 0.755 nM.

Take `C[C@]12CC[C@H]1CN1C[C@@]3(CCCc4cc(Cl)ccc43)COc3ccc(cc31)C(=O)NS(=O)(=O)CCCCC[C@@H]2O` (single isomer, unassigned) [Example 123]: the IC50 amounted to 4.3 nM.

For the molecule `CC[C@@H]1CC/C=C/[C@H](OCC(=O)N(C)C)[C@@H]2CC[C@H]2CN2C[C@@]3(CCCc4cc(Cl)ccc43)COc3ccc(cc32)C(=O)NS1(=O)=O` [Example 973], the 50% inhibitory concentration (IC50) was 0.378 nM.

As to `O=C1NS(=O)(=O)CC[C@H](CO)/C=C/[C@H](O)[C@@H]2CC[C@H]2CN2C[C@@]3(CCCc4cc(Cl)ccc43)COc3ccc1cc32` [Example 201, (1S,3′R,6′R,7′S,8′E,10′S)-6-chloro-7′-hydroxy-10′-(hydroxymethyl)-3,4-dihydro-2H,15′H-spiro[naphthalene-1,22′-[20]oxa[13]thia[1,14]diazatetracyclo[14.7.2.0^3,6.0^19,24]pentacosa [8,16,18,24]tetraen]-15′-one 13′,13′-dioxide], the IC50 amounted to 2.69 nM.

Consider `O=C1NS(=O)(=O)CCCCNC(=O)[C@@H]2CC[C@H]2CN2C[C@@]3(CCCc4cc(Cl)ccc43)COc3ccc1cc32` [Example 98, (1S,3′R,6′R)-6-chloro-3,4-dihydro-2H,7′H,15′H-spiro[naphthalene-1,22′-[20]oxa[13]thia[1,8,14]triazatetracyclo[14.7.2.0^3,6.0^19,24]pentacosa[16,18,24]triene]-7′,15′-dione 13′,13′-dioxide], for which the IC50 amounted to 15.5 nM.

Turning to `CS(=O)(=O)CCO[C@@H]1/C=C/CCCS(=O)(=O)NC(=O)c2ccc3c(c2)N(C[C@@H]2CC[C@H]21)C[C@@]1(CCCc2cc(Cl)ccc21)CO3` [Example 1095, (1S,3′R,6′R,7′R,8′E)-6-chloro-7′-(2-(methylsulfonyl)ethoxy)-3,4-dihydro-2H,15′H-spiro [naphthalene-1,22′-[20]oxa[13]thia[1,14]diazatetracyclo[14.7.2.0^3,6.0^19,24]pentacosa [8,16,18,24]tetraen]-15′-one 13′,13′-dioxide], the IC50 was found to be 1.29 nM.

Regarding `CC[C@@H]1CC/C=C/[C@H](OCCO[C@H]2CCCCO2)[C@@H]2CC[C@H]2CN2C[C@@]3(CCCc4cc(Cl)ccc43)COc3ccc(cc32)C(=O)NS1(=O)=O` (mixture of isomers) [Example 969], the IC50 is 2.91 nM.

In the case of `N#C[C@@H]1CC/C=C\[C@H](O)[C@@H]2CC[C@H]2CN2C[C@@]3(CCCc4cc(Cl)ccc43)COc3ccc(cc32)C(=O)NS1(=O)=O` (single isomer, unassigned) [Example 153], the IC50 came out at 1.22 nM.

On to `CC[C@@H]1CC/C=C/[C@H](OCC#N)[C@@H]2CC[C@H]2CN2C[C@@]3(CCCc4cc(Cl)ccc43)COc3ccc(cc32)C(=O)NS1(=O)=O` [Example 982, (((1S,3′R,6′R,7′S,8′E,12′R)-6-chloro-12′-ethyl-13′,13′-dioxido-15′-oxo-3,4-dihydro-2H-spiro[naphthalene-1,22′-[20]oxa[13]thia[1,14]diazatetracyclo[14.7.2.0^3,6.0^19,24]pentacosa [8,16,18,24]tetraen]-7′-yl)oxy)acetonitrile], for which the 50% inhibitory concentration (IC50) was found to be 3.14 nM.

As to `CC(=O)N1C[C@@H]2C/C=C/[C@H](O)[C@@H]3CC[C@H]3CN3C[C@@]4(CCCc5cc(Cl)ccc54)COc4ccc(cc43)C(=O)NS(=O)(=O)[C@H]2C1` (single isomer, unassigned) [Example 339], the IC50 was found to be 2.71 nM.

For `O=C1NS(=O)(=O)C/C=C/CNC(=O)[C@@H]2CC[C@H]2CN2C[C@@]3(CCCc4cc(Cl)ccc43)COc3ccc1cc32` (single isomer, unassigned) [Example 97, (1S,3′R,6′R,10′E)-6-chloro-3,4-dihydro-2H,7′H,15′H-spiro[naphthalene-1,22′-[20]oxa[13]thia[1,8,14]triazatetracyclo[14.7.2.0^3,6.0^19,24]pentacosa[10,16,18,24]tetraen]-7′,15′-dione 13′,13′-dioxide or (1S,3′R,6′R,10′Z)-6-chloro-3,4-dihydro-2H,7′H,15′H-spiro[naphthalene-1,22′-[20]oxa[13]thia[1,8,14]triazatetracyclo[14.7.2.0^3,6.0^19,24]pentacosa[10,16,18,24]tetraen]-7′,15′-dione 13′,13′-dioxide], the IC50 is 12.6 nM.

The same test, now with this note: cell free Mcl-1:Bim TR-FRET, recombinant human Mcl-1 (171-327).
As for `O=C1NS(=O)(=O)CCC/C=C/C[C@H](O)[C@@H]2CC[C@H]2CN2C[C@@]3(CCCc4cc(Cl)ccc43)COc3ccc1cc32` (single isomer, unassigned) [Example 833, (1S,3′R,6′R,7′S,9′E)-6-chloro-7′-hydroxy-3,4-dihydro-2H,16′H-spiro[naphthalene-1,23′-[21]oxa[14]thia[1,15]diazatetracyclo[15.7.2.0^3,6.0^20,25]hexacosa[9,17,19,25]tetraen]-16′-one 14′,14′-dioxide or (1S,3′R,6′R,7′S,9′Z)-6-chloro-7′-hydroxy-3,4-dihydro-2H,16′H-spiro[naphthalene-1,23′-[21]oxa[14]thia[1,15]diazatetracyclo[15.7.2.0^3,6.0^20,25]hexacosa [9,17,19,25]tetraen]-16′-one 14′,14′-dioxide], the IC50 is 5.12 nM.

Regarding `O=C1NS(=O)(=O)CCCCC(O)CC2CCC2CN2CC3(CCCc4cc(Cl)ccc43)COc3ccc1cc32` (single isomer, unassigned) [Example 881, (1S,3′R,6′S,8′S)-6-chloro-8′-hydroxy-3,4-dihydro-2H,15′H-spiro[naphthalene-1,22′-[20]oxa[13]thia[1,14]diazatetracyclo[14.7.2.0^3,6.0^19,24]pentacosa[16,18,24]trien]-15′-one 13′,13′-dioxide or (1S,3′R,6′S,8′R)-6-chloro-8′-hydroxy-3,4-dihydro-2H,15′H-spiro[naphthalene-1,22′-[20]oxa[13]thia[1,14]diazatetracyclo[14.7.2.0^3,6.0^19,24]pentacosa[16,18,24]trien]-15′-one 13′,13′-dioxide], the IC50 came to 22.2 nM.

In the case of `CC(=O)N(C)[C@@H]1CCCCCS(=O)(=O)NC(=O)c2ccc3c(c2)N(C[C@@H]2CC[C@H]21)C[C@@]1(CCCc2cc(Cl)ccc21)CO3` (single isomer, unassigned) [Example 941], the IC50 turned out to be 8.33 nM.

In the case of `CC#CC1=CC(O)CCC(C)S(=O)(=O)NC(=O)c2ccc3c(c2)N(CC2CCC12)CC1(CCCc2cc(Cl)ccc21)CO3` (single isomer, unassigned) [Example 605], the IC50 amounted to 0.943 nM.

With `C[C@@H]1[C@H](O)C/C=C/C[C@@H]2CC[C@H]2CN2C[C@@]3(CCCc4cc(Cl)ccc43)COc3ccc(cc32)C(=O)NS1(=O)=O` (single isomer, unassigned) [Example 506], the IC50 stood at 15.5 nM.

Turning to `CC(C)[C@@H]1CCCC[C@@H](O)[C@@H]2CC[C@H]2CN2C[C@@]3(CCCc4cc(Cl)ccc43)COc3ccc(cc32)C(=O)NS1(=O)=O` (single isomer, unassigned) [Example 754], the IC50 was determined as 8.93 nM.

As for `O=C1NS(=O)(=O)CCOCCC[C@@H]2CC[C@H]2CN2C[C@@]3(CCCc4ccccc43)COc3ccc1cc32` (stereo in doubt) [Example 824, (3S,6R,22S)-3′,4′-dihydro-2′H,15H-spiro[10,20-dioxa-13-thia-1,14-diazatetracyclo[14.7.2.0^3,6.^019,24]pentacosa-16,18,24-triene-22,1′-naphthalen]-15-one 13,13-dioxide], the IC50 came to 20.1 nM.

Consider `O=C1NS(=O)(=O)CCOCCC[C@@H]2CC[C@H]2CN2C[C@@]3(CCc4cc(Cl)ccc43)COc3ccc1cc32` (single isomer, unassigned) [Example 816], for which the IC50 worked out at 4.72 nM.

Regarding `COC[C@H]1C/C=C/[C@H](O)[C@@H]2CC[C@H]2CN2C[C@@]3(CCCc4cc(Cl)ccc43)COc3ccc(cc32)C(=O)NS1(=O)=O` (single isomer, unassigned) [Example 772], the IC50 came out at 5.2 nM.

On to `CS(=O)(=O)N[C@@H]1CCCCCS(=O)(=O)NC(=O)c2ccc3c(c2)N(C[C@@H]2CC[C@H]21)C[C@@]1(CCCc2cc(Cl)ccc21)CO3` (single isomer, unassigned) [Example 938], for which the IC50 is 5.94 nM.

On to `O=C1NS(=O)(=O)C/C=C/CCC[C@@H]2CC[C@H]2CN2C[C@@]3(CCCc4cc(Cl)ccc43)COc3ccc1cc32` (single isomer, unassigned) [Example 498], for which the half-inhibitory concentration (IC50) was 9.03 nM.

`O=C1NS(=O)(=O)[C@H]2CCN(C2)C(=O)CC[C@@H]2CC[C@H]2CN2C[C@@]3(CCCc4cc(Cl)ccc43)COc3ccc1cc32` (single isomer, unassigned) [Example 946]: the IC50 is 4.15 nM.
